The source of these data is ChEMBL document CHEMBL2074470, “P-glycoprotein-mediated transport of itraconazole across the blood-brain barrier” (Antimicrob Agents Chemother, 1998).

This data set has as its target ATP-dependent translocase ABCB1 (Mus musculus, UniProt P21447). Briefly: TP_TRANSPORTER: increase in brain concentration in mdr1a(-/-) mouse. In kind it is functional, organism-based. The following applies: in vivo.

ATP-dependent translocase ABCB1, sequence (P21447 whole entry): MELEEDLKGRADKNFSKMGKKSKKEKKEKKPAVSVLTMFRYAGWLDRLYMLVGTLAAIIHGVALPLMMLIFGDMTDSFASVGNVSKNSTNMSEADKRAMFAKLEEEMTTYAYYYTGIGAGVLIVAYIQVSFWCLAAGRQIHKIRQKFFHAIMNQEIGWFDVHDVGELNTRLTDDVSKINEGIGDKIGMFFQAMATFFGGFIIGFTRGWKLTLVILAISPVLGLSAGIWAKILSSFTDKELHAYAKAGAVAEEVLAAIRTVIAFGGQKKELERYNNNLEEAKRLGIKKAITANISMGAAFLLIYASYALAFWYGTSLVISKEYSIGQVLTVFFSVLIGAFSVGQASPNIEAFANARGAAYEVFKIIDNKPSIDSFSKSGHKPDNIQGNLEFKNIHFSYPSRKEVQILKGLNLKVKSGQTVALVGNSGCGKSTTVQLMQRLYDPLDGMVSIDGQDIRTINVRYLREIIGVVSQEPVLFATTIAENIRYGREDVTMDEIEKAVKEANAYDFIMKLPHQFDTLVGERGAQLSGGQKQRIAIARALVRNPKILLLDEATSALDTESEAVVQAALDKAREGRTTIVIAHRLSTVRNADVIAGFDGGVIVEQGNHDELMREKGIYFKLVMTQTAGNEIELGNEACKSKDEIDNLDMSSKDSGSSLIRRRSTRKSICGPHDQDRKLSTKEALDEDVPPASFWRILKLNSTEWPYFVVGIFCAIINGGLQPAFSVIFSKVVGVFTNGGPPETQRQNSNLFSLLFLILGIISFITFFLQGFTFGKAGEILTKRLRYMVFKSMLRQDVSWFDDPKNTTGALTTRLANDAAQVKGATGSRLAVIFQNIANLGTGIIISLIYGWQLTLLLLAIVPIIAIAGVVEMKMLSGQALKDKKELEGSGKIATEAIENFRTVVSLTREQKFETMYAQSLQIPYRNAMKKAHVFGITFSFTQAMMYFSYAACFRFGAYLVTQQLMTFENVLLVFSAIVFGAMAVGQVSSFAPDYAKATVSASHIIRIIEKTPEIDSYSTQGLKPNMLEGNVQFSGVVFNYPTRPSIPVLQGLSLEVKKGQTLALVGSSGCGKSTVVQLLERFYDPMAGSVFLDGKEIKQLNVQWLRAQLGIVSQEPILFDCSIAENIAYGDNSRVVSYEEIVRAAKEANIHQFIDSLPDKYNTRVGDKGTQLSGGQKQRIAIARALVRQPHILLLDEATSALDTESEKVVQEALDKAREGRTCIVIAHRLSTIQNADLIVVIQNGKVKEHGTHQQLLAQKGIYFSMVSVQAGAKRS

For `CCC(C)n1ncn(-c2ccc(N3CCN(c4ccc(OCC5COC(Cn6cncn6)(c6ccc(Cl)cc6Cl)O5)cc4)CC3)cc2)c1=O` (stereo unspecified) [ITRACONAZOLE], the Activity entry is “substrate [+]”.
